In article PMC11755562, “Peptide Inhibitor Assay for Allocating Functionally Important Accessible Sites Throughout a Protein Chain: Restriction Endonuclease EcoRI as a Model Protein System” (BioTech, 2024):
Entries after “also recorded” stand apart in the source; their conditions may differ.

How the values were obtained:
EcoRI [1] = target: T1, EcoRI (Escherichia coli, UniProt P00642); experiment: Peptide inhibitor assay (PIA): EcoRI digestion of pCRII-TOPO-OR23 plasmid, fluorescence intensity of the excised OR23 band on agarose gel; assay type: biochemical; conditions: 3 h
T1 construct: The first M is removed after translation in this protein; purchased New England Biolabs
Method: Peptide synthesis was performed by GenScript Japan (Tokyo, Japan). All peptides were confirmed to be more than 75% pure via high-performance liquid chromatography (HPLC) and to have theoretical molecular weights via mass spectrometry (MS). The peptides were dissolved in DMSO (dimethyl sulfoxide) and were prepared at 5.59 × 10^−9 mol/μL (5.59 mM). When 1.0 μL of this peptide mixture was mixed in a tube for the inhibition of EcoRI catalytic activity, the molar ratio of EcoRI to peptide was 1:500. This concentration in molar equivalence was used throughout this study unless otherwise noted.
Purified and concentrated EcoRI (20,000 U/mL, approximately 338 μg/mL, 1.12 × 10^−[…]) was obtained from New England Biolabs (Ipswich, MA, USA). To quantify and visualize the inhibitory effects of the peptides, the enzymatic reaction conditions were set so that at least three hours of incubation were required to completely digest the substrate plasmid DNA with EcoRI. To do so, we used a low Mg^2+ concentration (0.015 mM) in the reaction mixture in contrast to the optimum concentration of Mg^2+ for EcoRI (10 mM).
(§1) All master solutions and samples were prepared on ice. A single reaction tube contained the following common ingredients: autoclaved DNase-free RNase-free deionized H2O (12.5 μL) (Nippon Gene), 10× NE Buffer Mg^2+-free (2.0 μL), pCRII-TOPO-OR23 plasmid DNA (2.0 μL of 40 ng/μL solution), MgCl2 (1.5 μL of 0.20 mM solution), and EcoRI (1.0 μL). A master solution containing these ingredients without DMSO or a peptide was first prepared for the number of sample tubes. The master solution was aliquoted into 1.5 mL spin tubes (19.0 μL per tube). Then, 1.0 μL of DMSO or a peptide sample was added, and the mixture was incubated at 37 °C. A negative control with DMSO but without a peptide (“no peptide” control) was run in every assay. When the digestion efficiency was compared, another negative control with autoclaved DNase-free RNase-free H2O without EcoRI was prepared. After the reaction, the samples were quickly cooled on ice for ten minutes and then stored at −80 °C until agarose gel electrophoresis. The above protocol was conducted for all peptides (including BP19.5, BP19.5N, and BP19.5C) used in the present study unless otherwise noted.
To quantify EcoRI activity after incubation of a reaction mixture, digested pCRII-TOPO-OR23 plasmid DNA was examined via agarose gel electrophoresis. We first prepared a 25 mL solution of 1.0% agarose (Nippon Gene) in TAE (Tris-acetate-EDTA) buffer (Promega, Madison, WI, USA) to produce an agarose gel. An ethidium bromide solution (0.5 μL of 10 mg/mL) (Promega) was added before gelation. After incubation with EcoRI, the fluorescence intensity of the band of the excised OR23 fragment was measured via an ImageQuant LAS4000 (GE Healthcare Japan, Tokyo, Japan) with the following conditions: “Exposure Type”: Precision; “Exposure Time”: Manual 1/8 sec; “Sensitivity/Resolution”: Standard; and “Fluorescent Method”: Epi illumination; EtBr; UV (Trans UV) light; 6-5DF50 Filter; and F2.8 Iris.
For statistical analyses, Student’s t-test (unpaired and bi-sided), Dunnett’s test, and Pearson correlation analysis were performed via Microsoft Excel (Office 365) and JSTAT (Yokohama, Japan). The Dunnett’s test was performed for each experimental group that was examined simultaneously in the laboratory, in comparison to the “no peptide” control group that was examined simultaneously. The repeated measure mode of the Dunnett’s test was used on the assumption that there was no interaction between samples.

EcoRI [2] = target: T1, EcoRI; experiment: Nonspecific nuclease activity of EcoRI reaction mixture with peptide (plasmid DNA degradation); assay type: biochemical; conditions: EcoRI plus peptide 1:500, 3 h; n = 3
Method: A recombinant plasmid, pCRII-TOPO (Invitrogen, Waltham, MA, USA), containing a PCR fragment of the full-length cDNA (978 bp) of the mouse odorant receptor OR23 [82, 83, 84, 85, 86] at the EcoRI cloning site (GAATTC) was used as a DNA substrate for EcoRI. […] This pCRII-TOPO-OR23 plasmid was prepared from TOP10F’ Escherichia coli (Invitrogen) using ATP Plasmid Mini Kit (ATP Biotech, Taipei, ROC). The plasmid solution was prepared at 40 ng/μL by adding autoclaved DNase-free RNase-free deionized H2O (Nippon Gene, Tokyo, Japan). The DNA concentrations were measured with a Qubit fluorometer (Invitrogen).
as §1
This reaction mixture containing EcoRI and BP19.5 appeared to degrade the plasmid DNA entirely. […] The DNA concentration at 3 h was 3.297 ± 0.006 ng/μL without any peptide in the reaction mixture and 0.332 ± 0.003 ng/μL with BP19.5, indicating a statistically significant difference (n = 3; unpaired bi-sided Student’s t-test; p = 1.6 × 10^−11). […] Therefore, BP19.5 and its derivatives are likely to cause EcoRI to become a nonspecific nuclease. In other words, BP19.5 was likely a specificity/activity modifier of EcoRI instead of an inhibitor.

T1 sequence (P00642 2-277): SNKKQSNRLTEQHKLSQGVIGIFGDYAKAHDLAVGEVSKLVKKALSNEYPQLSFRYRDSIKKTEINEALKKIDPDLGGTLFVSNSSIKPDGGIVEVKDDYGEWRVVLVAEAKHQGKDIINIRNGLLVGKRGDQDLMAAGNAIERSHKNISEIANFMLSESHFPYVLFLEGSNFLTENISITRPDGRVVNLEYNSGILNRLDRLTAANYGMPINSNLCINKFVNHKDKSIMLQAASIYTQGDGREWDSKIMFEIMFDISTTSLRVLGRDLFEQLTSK

## NLCINKFVNHKDK [BP20]
EcoRI [1]; EcoRI:peptide 1:500, relative fluorescence intensity, n = 3
  level of inhibitory effect on EcoRI (in words): especially notable; also recorded: strong inhibitory effect; also recorded: most effective
EcoRI [1]; relative to no peptide, EcoRI:peptide 1:500 molar ratio, 37 °C, 0.015 mM Mg2+, mean of n = 3
  relative fluorescence intensity of excised OR23 fragment: less than 0.3
EcoRI [2]
  plasmid DNA degradation / nonspecific nuclease induction (agarose gel electrophoresis, in words): does not induce nuclease activity
